Test results as given in ChEMBL document CHEMBL4811222, “Antitumor Activity of Asperphenin B by Induction of Apoptosis and Regulation of Glyceraldehyde-3-phosphate Dehydrogenase in Human Colorectal Cancer Cells” (J Nat Prod, 2021).
Activity calls are given as the source filed them. The rule behind the calls is not given here.

Columns and labels:
[1] = system: LS174T; test: Antiproliferative activity against human LS174T cells assessed as inhibition of cell growth incubated for 72 hrs by SRB assay; assay type: functional, cell-based
[2] = system: CCD-18Co; test: Antiproliferative activity against human CCD-18Co cells assessed as inhibition of cell growth incubated for 72 hrs by SRB assay; assay type: cell-based
[3] = system: SW480; test: Antiproliferative activity against human SW480 cells assessed as inhibition of cell growth incubated for 72 hrs by SRB assay; assay type: functional, cell-based; conditions: SW480, 72 h
[4] = system: RKO; test: Antiproliferative activity against human RKO cells assessed as inhibition of cell growth incubated for 72 hrs by SRB assay; assay type: functional, cell-based
[5] = system: HCT-116; test: Antiproliferative activity against human HCT-116 cells assessed as inhibition of cell growth incubated for 72 hrs by SRB assay; assay type: functional, cell-based; conditions: HCT-116, 72 h
[6] = system: CCD-841CoN; test: Antiproliferative activity against human CCD-841CoN cells assessed as inhibition of cell growth incubated for 72 hrs by SRB assay; assay type: cell-based
[7] = system: RKO; test: Antitumor activity against human RKO cells implanted in BALB/c nude mouse assessed as inhibition of tumor growth at 4 mg/kg, ip administered three times per week for 21 days and measured every 3 to 4 days by electronic caliper method; assay type: functional; conditions: time 21.0 day
[8] = system: RKO; test: Suppression of GAPDH protein expression in human RKO cells at 2.5 to 10 uM after 24 hrs by Western blotting analysis; assay type: functional, cell-based; conditions: dose 2.5-10 µM
[9] = system: RKO; test: Antitumor activity against human RKO cells implanted in BALB/c nude mouse assessed as suppression of Ki67 expression level in tumor lysates at 4 to 8 mg/kg, ip administered three times per week for 21 days by Western blotting analysis; assay type: functional, organism-based; conditions: Neoplasm, dose 4-8 mg/kg, time 21.0 day
[10] = system: RKO; test: Antitumor activity against human RKO cells implanted in BALB/c nude mouse assessed as inhibition of tumor growth at 8 mg/kg, ip administered three times per week for 21 days and measured every 3 to 4 days by electronic caliper method; assay type: functional; conditions: time 21.0 day
[11] = system: RKO; test: Antitumor activity against human RKO cells implanted in ip dosed BALB/c nude mouse assessed as suppression of GAPDH expression in tumor lysates administered three times per week for 21 days by Western blotting analysis; assay type: functional, organism-based; conditions: Neoplasm, time 21.0 day

IC50 [3]	IC50 [5]	Compound	IC50 [1]	IC50 [2]	IC50 [4]	IC50 [6]	TGI [7]	Activity [8]	Activity [9]	TGI [10]	Activity [11]
1110 nM	660 nM	COc1cc([C@@H]2c3cc4c(cc3[C@@H](O[C@@H]3O[C@@H]5CO[C@@H](C)O[C@H]5[C@H](O)[C@H]3O)[C@H]3COC(=O)[C@H]23)OCO4)cc(OC)c1O [ETOPOSIDE]	480 nM	18.4 µM	1960 nM	8.71 µM	–	–	–	–	–
> 50000 nM	> 50000 nM	CCCCCCCCC[C@@H](O)CC(=O)N[C@@H](CC(N)=O)C(=O)N[C@@H](CCC(N)=O)C(=O)N[C@@H](CC(C)C)C1=C(c2c(O)cccc2O)c2c(O)cc(C)cc2C1=O	> 50000 nM	> 50 µM	> 50000 nM	> 50 µM	inactive	inactive	inactive	inactive	inactive
